We go through 4 compounds from article PMC9012159, “A comparative biodistribution study of polymeric and lipid-based nanoparticles” (Drug Delivery and Translational Research, 2022).

This series can be described thus: PEBCA pharmacokinetics and biodistribution study in rats (Cbz and metabolites by LC-MS/MS). The series is classed as in vivo, rat. As to conditions: for detection of possible Cbz metabolite in samples: all tissue and serum samples after PEBCA, LC-MS/MS; for peak concentration ratio organ:blood, fold higher for Cbz than for IR780-oleyl: highest doses. The procedure:
Male Wistar rats were purchased at 8 weeks of age from Janvier Labs (France). They were housed in groups of four in individually ventilated cages in a specific pathogen-free environment at 22–23 °C and 50–60% relative humidity, on a 12-h light/dark cycle and with 70 air changes per hour and free access to food and sterile water. They were fed RM1 expanded pellets (Special Diets Services, Essex, UK), and the cages were enriched with housing, nesting material and gnaw sticks. All institutional and national guidelines for the care and use of laboratory animals were followed. Experiments were performed in Norway.
During all experiments, the animals were anaesthetized by inhalation of 2–3% isoflurane (Baxter, Deerfield, IL, USA). Anaesthesia was maintained with isoflurane in 0.4 L/min O2 and 0.6 L/min N2O.
To perform the pharmacokinetics and biodistribution study, the animals were separated into 2 groups according to dose: • Low dose PEBCA-Cbz, 0.5 mg/kg Cbz (4.4 mg/kg NPs) • High dose PEBCA-Cbz, 3.5 mg/kg Cbz (30.5 mg/kg NPs)
Details about the treatment groups are available in Table 1. Before injection, the particles were diluted in 0.9% saline to a concentration that corresponded to an injection volume of 2 mL/kg. In addition to the treated animals, 6 sham-treated (injected with 0.9% saline 2 mL/kg) animals were used. The sham-treated animals were euthanized at 2, 4 and 14 days, two at each time point. Animals were injected intravenously once.
Blood samples on time points 1–30 min and 4 h (Table 2) were performed on conscious animals, and all other blood samples were collected during exsanguination. The leg of the animal was shaved to expose the saphenous vein. Petrolatum was applied to the shaved area and the saphenous vein was punctured using a 19G needle. Into tubes containing blood clotting activator, 300–500 µL blood was collected (Microvette 500 Serum, Sarstedt AG & Co. KG, Germany). The tubes were turned 3–4 times, left for 60 min in upright position at room temperature to allow clot formation before centrifugation at 10 000 rcf for 5 min. The serum was immediately transferred to new tubes and stored at − 80 °C until LC–MS/MS analysis.
Cbz was quantified by LC–MS/MS, using the same instrumentation and chromatographic column as described for IR-780-oleyl quantification above. […] The flow rate was constant at 0.5 mL/min and the injection volume was 1 µL. […] Similarly, Cbz-d6 and docetaxel-d5 internal standards were monitored at m/z 864.4 → 583.2 and 835.5 → 554.3, respectively.
7-Methyl-docetaxel was purchased from SynZeal Research (Moraiya, India, catalogue number SZ-D031010), 10-methyl-docetaxel from Eos Med Chem (Jinan, China, custom synthesis), docetaxel from Sigma (Fluka, product number 01885) and 7-epi-docetaxel from Santa Cruz Biotechnology (Dallas, USA, product number SC-210610).
The Cbz-d6 and docetaxel-d5 internal standards were purchased from Toronto Research Chemicals (Toronto, Canada, catalogue numbers C046502 and D494423, respectively). A mix of the two internal standards was added to all standards and samples to yield a final concentration of 50 ng/mL.

On to `CC(=O)O[C@@]12CO[C@@H]1C[C@@H](O)[C@@]1(C)C(=O)[C@H](O)C3=C(C)[C@@H](OC(=O)[C@H](O)[C@@H](NC(=O)OC(C)(C)C)c4ccccc4)C[C@@](O)([C@@H](OC(=O)c4ccccc4)[C@H]21)C3(C)C` [7-epi-docetaxel], for which the “detection of possible Cbz metabolite in samples” value (rat) is given as “no 7-epi-docetaxel”.
Same read-out and setting: the entry for `CO[C@H]1C[C@H]2OC[C@@]2(OC(C)=O)[C@H]2[C@H](OC(=O)c3ccccc3)[C@]3(O)C[C@H](OC(=O)[C@H](O)[C@@H](NC(=O)OC(C)(C)C)c4ccccc4)C(C)=C([C@@H](O)C(=O)[C@]12C)C3(C)C` [7-methyl-docetaxel] is “No 7-methyl-docetaxel was observed in any sample”.
Consider `CO[C@H]1C(=O)[C@@]2(C)[C@H]([C@H](OC(=O)c3ccccc3)[C@]3(O)C[C@H](OC(=O)[C@H](O)[C@@H](NC(=O)OC(C)(C)C)c4ccccc4)C(C)=C1C3(C)C)[C@]1(OC(C)=O)CO[C@@H]1C[C@@H]2O` [10-m-Doc, 10-methyl-docetaxel], for which the “metabolite concentration in brain” value (Cbz metabolites after PEBCA, even at high dose administered, rat, negligible) came to 0.2 ng/g. Besides, the “metabolite concentration in serum relative to Cbz in the same sample” value (after PEBCA, rat serum, found only up to the 15-min sampling point) was not above 0.5%.
As for `CO[C@H]1C(=O)[C@]2(C)[C@@H](OC)C[C@H]3OC[C@@]3(OC(C)=O)[C@H]2[C@H](OC(=O)c2ccccc2)[C@]2(O)C[C@H](OC(=O)[C@H](O)[C@@H](NC(=O)OC(C)(C)C)c3ccccc3)C(C)=C1C2(C)C` [Cbz, cabazitaxel], the “sampling point at which the organ:blood ratio reaches its peak” value (Cbz after PEBCA, in most cases, rat) is given as 24 h. Besides, the “dose response (concentration ratio normalized to injected dose)” value runs as follows: (Cbz after PEBCA, majority of organs and time points, rat) more than 1; (Cbz after PEBCA, serum, rat) less than 1. Further, the “Lung Cmax” value (Cbz measured after PEBCA high dose, 3.5 mg/kg Cbz (30.5 mg/kg NPs) i.v., rat, n = 4) is 7593 ng/g. The “measured concentration ratio all organs vs. blood, fold higher for cabazitaxel as compared to IR780-oleyl” value (all organs, rat (abstract)) is on record as “more than 50 fold”. In addition, the “peak concentration ratio organ:blood, fold higher for Cbz than for IR780-oleyl” value by setting is: (all tissues except liver, rat) “at least 100 fold”; (liver, rat) “about 50 fold”. Further, under “within the first 4 h after PEBCA injection, rat serum”, the “decrease in serum concentration of Cbz” value is listed as approximately 100 fold.
